The values below are quoted from earlier work in US20240390444A1, “COMPOSITIONS AND METHODS LOWERING GLYCEMIC RESPONSE TO IMPROVE SLEEP QUALITY AND/OR SUBSEQUENT BEHAVIOURAL OUTCOMES” (SOCIETE DES PRODUITS NESTLE S.A., priority 2021, published 2024).

For this data set the following is noted: 12.5 mg DNJ in capsule, co-ingestion with maltodextrin.

In the case of `OC[C@H]1NC[C@H](O)[C@@H](O)[C@@H]1O` [DNJ, 1-deoxynojirimycin], the “reduction of PPGR” value was 14%.
